The subject of the assay is leukemia stem cells (GFP+Lin− c-Kit+Sca-1+). In words: Bone marrow cells from CML mice cultured in vitro with HHT, FACS analysis of leukemia stem cells. It is filed as cell-based. As for the experimental part: FIG. 5A is a FACS analysis of bone marrow cells isolated from mice with BCR-ABL-WT-induced CML were cultured in vitro (5×10^6 cells/6 cm tissue culture plate) in the presence of different doses of HHT for 6 days (changing the stem cell medium containing placebo or HHT at day 3) followed by FACS analysis of leukemia stem cells (GFP+Lin− c-Kit+Sca-1+). FIG. 5B depicts bar graphs for the leukemic cells and leukemic stem cells. […] Bone marrow cells were isolated from the treated CML mice, and leukemia stem cells were analyzed by FACS. The numbers of cells represent total leukemia stem cells in average from femur and tibia of each treated CML mouse.
FIG. 5A is a FACS analysis of bone marrow cells isolated from mice with BCR-ABL-WT-induced CML that were cultured in vitro (5×10^6 cells/6 cm tissue culture plate) in the presence of different doses of HHT for 6 days (changing the stem cell medium containing placebo or HHT at day 3) followed by FACS analysis of leukemia stem cells (GFP+ Lin− c-Kit+Sca-1+). FIG. 5B depicts bar graphs for the leukemic cells and leukemic stem cells.
On the technique in general: In flow cytometry, cells or beads pass a laser one at a time.

[1] abbreviates: in vitro, different doses of HHT for 6 days.

For `COC(=O)C[C@](O)(CCCC(C)(C)O)C(=O)O[C@@H]1C(OC)=C[C@]23CCCN2CCc2cc4c(cc2[C@H]13)OCO4` [HHT, Homoharringtonine], the “proliferation of BCR-ABL-expressing leukemic stem cells” value is “inhibits the proliferation”. Under setting [1], the “number of leukemic cells” value is on record as “reduces” and the “number of leukemic stem cells” value is given as “reduces”.

Values taken from patent publication US20090176759A1, “LEUKEMIC STEM CELL ABLATION” (ChemGenex Pharmaceuticals, Inc., priority 2007, published 2009).
